Test results: US20040097555A1, “Concomitant drugs” (priority 2000, published 2004)

How the values were obtained:
human p38 MAP kinase = biological target: T1, human p38 MAP kinase (Homo sapiens, UniProt Q16539); assay: Measurement of the enzyme inhibitory activity of active form p38 MAP kinase (32P uptake into Myelin Basic Protein), Reference Example C1; assay type: biochemical; conditions: concentration inhibiting uptake of 32P into acid insoluble fraction (Myelin Basic Protein) by 50%, Table 45
T1 construct: FLAG (N); made in house; host or cells: Sf-21 insect cells, baculovirus (BAC-HP38 co-infected with BAC-caMKK3)
Description: (1) Cloning of Human p38 MAP Kinase Gene and Preparation of Recombinant Baculovirus
Cloning of human p38 MAP kinase gene was performed by a PCR method using a primer set P38-U: 5′-[…]-3′ [SEQ ID NO:1] and PAG-L: 5′-[…]-3′ [SEQ ID NO:2] made by the use of kidney cDNA (Toyobo, QUICK-Clone cDNA) as a template and referring to the base sequence of p38 MAP kinase gene reported by Han et al. (Science 265 (5173), 808-811 (1994)).
(2) Cloning of Human MKK3 Gene and Preparation of Recombinant Baculovirus
(3) Preparation of Active Form p38 MAP Kinase
The Sf-21 cells were seeded on 100 mL Sf-900II SFM medium (GIBCOBRL) to 1×10^6 cells/mL and cultured at 27° C. for 24 hours. After each 0.2 mL of the virusstock BAC-HP38 and BAC-caMKK3 of recombinant baculovirus were added, the culturing was further performed for 48 hours. After the cells were separated from the culturing solution by centrifugation (3000 rpm, 10 min), the cells were washed twice with PBS. After the cells were suspended in 10 ml Lysis buffer (25 mM HEPES (pH 7.5), 1% Triton X, […], 1 mM EDTA, 1 mM DTT, 25 mM β-glycerophosphate, […], 1 mM APMSF, 1 mM Sodium orthovanadate), the cells were lysed by treating twice in a homogenizer (POLYTRON) at 20000 rpm for 2 minutes. From the supernatant obtained by centrifugation (40000 rpm, 45 minutes), active form p38 MAP kinase was purified using Anti-FLAG M2 Affinity Gel (Eastman Chemical).
(4) Measurement of the Enzyme Inhibitory Activity
2.5 μL of a test compound dissolved in DMSO was added to 37.5 μL reaction solution (25 mM HEPES (pH 7.5), 10 mM Magnesium Acetate) containing 260 ng active form p38 MAP kinase and 1 μg Myelin Basic Protein, which was maintained at 30° C. for 5 minutes. The reaction was initiated by adding […] ATP solution (2.5 μM ATP, 0.1 μCi [g-^32P]ATP). After the reaction was performed at 30° C. for 60 minutes, the reaction was stopped by adding 50 μL 20% TCA solution. After the reaction solution was allowed to stand at 0° C. for 20 minutes, an acid insoluble fraction was transferred to GF/C filter (Packard Japan) using Cell Harvester (Packard Japan) and washed with 250 mM H3PO4. After drying at 45° C. for 60 minutes, 40 μL Microscint 0 (Packard Japan) was added and the radioactivity was measured with a TopCount (Packard Japan). The concentration (IC50 value) of the test compound necessary for inhibiting uptake of ^32P into an acid insoluble fraction by 50% was calculated with PRISM 2.01 (Graphpad Software).

[1] = tested on: TNF-α production in THP-1 cells; assay: Measurement of inhibiting activity of TNF-α production in LPS-stimulated THP-1 cells (ELISA), Experimental Example C2; assay type: cell-based; conditions: Homo sapiens, concentration inhibiting TNF-α production by 50%, LPS 5 μg/mL, 4 hour, Table 46
Description: (§1) Measurement of inhibiting activity of TNF-α production
After THP-1 cells which had been cultured on PRMI 1640 medium (manufactured by Life Technologies, Inc.) containing 1% inactivated bovine fetal serum (manufactured by Life Technologies, Inc., U.S.A.) and 10 mM HEPES (pH 7.5) seeded on a 96-well plate to 1×10^5 cells/well, 1 μL test compound dissolved in DMSO was added. After incubation at 37° C. for 1 hour in a CO2 incubator, LPS (Wako Pure Chemicals) was added to the final concentration 5 μg/mL. After cultured at 37° C. for 4 hour in a CO2 incubator, the supernatant was obtained by centrifugation. The concentration of TNF-α in the supernatant was measured by ELISA (R&D Systems, Quantikine Kit). The concentration (IC50 value) of the test compound necessary for inhibiting TNF-α production by 50% was calculated using PRIMS 2.01 (Graphpad Software).

[2] = tested on: TNF-α production in THP-1 cells; assay: Measurement of inhibiting activity of TNF-α production in LPS-stimulated THP-1 cells (ELISA), Reference Example F3; assay type: cell-based; conditions: Homo sapiens, LPS 5 μg/mL, 4 hours, read-out: IC50 (concentration necessary for inhibiting TNF-α production by 50%)
Description: as §1
After THP-1 cells which had been cultured in PRMI 1640 medium (manufactured by Life Technologies, Inc.) containing 1% non-activated bovine fetal serum (manufactured by Life Technologies, Inc., U.S.A.) and 10 mM HEPES (pH 7.5) seeded on a 96-well plate to 1×10^5 cells/well, 1 μL test compound dissolved in DMSO was added to there. After incubation at 37° C. for 1 hour in a CO2 incubator, LPS (Wako Pure Chemicals) was added to the final concentration 5 μg/mL. After cultured at 37° C. for 4 hours in a CO2 incubator, the supernatant was obtained by centrifugation. The concentration of TNF-α in the supernatant was measured with ELISA (R&D System, Quantikine Kit). The concentration (IC50 value) necessary for inhibiting TNF-α production by 50% was calculated by PRIMS 2.01 (Graphpad Software).

T1 sequence (Q16539 whole entry): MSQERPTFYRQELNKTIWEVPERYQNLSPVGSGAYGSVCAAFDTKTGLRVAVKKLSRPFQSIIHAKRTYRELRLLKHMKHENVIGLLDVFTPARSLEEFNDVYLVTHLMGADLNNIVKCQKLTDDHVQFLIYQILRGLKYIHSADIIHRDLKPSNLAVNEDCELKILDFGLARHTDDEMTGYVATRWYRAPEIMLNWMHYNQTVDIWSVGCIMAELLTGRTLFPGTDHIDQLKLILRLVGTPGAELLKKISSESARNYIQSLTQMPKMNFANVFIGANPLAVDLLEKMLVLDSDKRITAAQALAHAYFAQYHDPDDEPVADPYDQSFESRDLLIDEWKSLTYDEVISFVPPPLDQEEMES

melting point | IC50 (human p38 MAP kinase) | other results | SMILES
145 to 150 °C |  |  | COc1ccc(-c2nc(N)sc2-c2cccnc2)cc1.Cl
 | 86 nM |  | COc1ccc(-c2nc(N)sc2-c2ccncc2)cc1 [13-14, [4-(4-methoxyphenyl)-5-(4-pyridyl)-1,3-thiazol-2-yl]amine]
 | 81 nM |  | Nc1nc(-c2ccccc2)c(-c2ccncc2)s1 [13-15, [4-phenyl-5-(4-pyridyl)-1,3-thiazol-2-yl]amine]
 | 60 nM |  | CNc1nc(-c2ccc(OC)cc2)c(-c2ccncc2)s1 [13-16, N-methyl [4-(4-methoxyphenyl)-5-(4-pyridyl)-1,3-thiazol-2-yl]amine]
 | 26 nM |  | CNc1nc(-c2ccc(Cl)cc2)c(-c2ccncc2)s1 [13-70, N-methyl [4-(4-chlorophenyl)-5-(4-pyridyl)-1,3-thiazol-2-yl]amine]
 |  | IC50 [1]: 46 nM | Cc1cccc(-c2nc(N)sc2-c2ccncc2)c1 [23-60, [4-(3-methylphenyl)-5-(4-pyridyl)-1,3-thiazol-2-yl]amine]
135 to 137 °C |  |  | Fc1ccc(-c2nc(-c3ccccc3)sc2-c2ccncc2)cc1 [44-1, 4-(4-fluorophenyl)-2-phenyl-5-(4-pyridyl)-1,3-thiazole]
265 to 266 °C |  |  | COc1ccc(-c2nc(N)sc2-c2cccnc2)cc1 [Reference Example A 8, [4-(4-methoxyphenyl)-5-(3-pyridyl)-1,3-thiazol-2-yl]amine]
158 to 159 °C |  |  | CNc1nc(-c2ccc(OC)cc2)c(-c2cccnc2)s1 [Reference Example A 9, N-methyl [4-(4-methoxyphenyl)-5-(3-pyridyl)-1,3-thiazol-2-yl]amine]
90 to 91 °C |  |  | Cc1cccc(-c2nc(-c3ccc(S(C)(=O)=O)cc3)sc2-c2ccnc(S(=O)(=O)c3ccccc3)c2)c1 [Reference Example D 28, 4-(3-methylphenyl)-2-(4-methylsulfonylphenyl)-5-(2-phenylsulfonyl-4-pyridyl)-1,3-thiazole]
 |  | IC50 [2]: 20 nM | Cc1cc(C)cc(-c2nc(N)sc2-c2ccnc(NC(=O)c3ccccc3)c2)c1 [compound 5]
